One compound from patent publication US12479794B2, “Acetophenone oxime compound and application thereof” (Medshine Discovery Inc., priority 2020, dated 2025) can be followed below.

One series concerns the target T1, S1P1 (Homo sapiens, UniProt P21453).
T1 construct: host or cells: U2OS
The series is described as follows: In vitro agonistic activity on S1P1, U2OS-EDG1 cells, LiveBLAzer FRET B/G. The class given is cell-based. As for the experimental part: Assay Example 1: In Vitro Evaluation of the Agonistic Activity of the Compounds of the Present Disclosure on S1P1
Object of the assay: To detect the agonistic activity of compounds on S1P1
• 1. Cells U2OS-EDG1 (Batch No.: Invitrogen-K1520) were taken out of a liquid nitrogen tank and placed in a 37° C. water bath to thaw quickly; • 2. The cell suspension was aspirated into a 15 ml centrifuge tube, resuspended in 5 ml of preheated medium, and centrifuged at 1000 rpm for 5 min; • 3. The supernatant was discarded. The cells were resuspended in 10 ml of medium, transferred into a T75 culture flask, and cultivated in an incubator with 5% CO2 at 37° C. II. Agonist Assay • 1. The compounds were diluted to working concentrations, and serially diluted 3-fold by Echo 555 (manufacturer: Labcyte) to obtain 10 concentrations; 200 nL of each concentration of the compound was transferred to a cell plate and centrifuged at 1000 rpm for 15 seconds; • 2. Culture medium was aspirated from the culture flask; 4 mL of Dulbecco's phosphate buffer (DPBS, supplier: Coring, item No.: 21-031-CVR, batch No.: 03318006) was added, and the residual serum was washed away; 2 mL of trypsin was added; The mixture was incubated in an incubator at 37° C. for 2 min, and the cells were digested; 10 mL of seeding medium was added to resuspend the cells; 0.6 mL of cell suspension was taken out and counted; • 3. The density of cells was adjusted to 1.88E+05 cells/mL using seeding medium, with 40 μL per well (7500\well); 40 μL of FreeStyle™ Expression medium was added around the cell plate; The plate was let stand at room temperature for 15 min and incubated at 37° C. with 5% CO2 for 20 hours. III. Signal Detection • 1. LiveBLAzer™-FRET B/G Substrate (CCF4-AM) assay reagents were formulated according to the instructions; • 2. 8 μL of 6×Substrate Mixture was added to each well of the cell plate; The plate was centrifuged at 1000 rpm for 15 seconds, covered with a film, and incubated at 23° C. for 2 hours; The cell plate was subjected to Envision […] detection. IV. Data Analysis • 1. The raw data were converted into % Effect by using an equation, and the EC50 value can be obtained by curve fitting with four parameters [“log(agonist) vs. response—Variable slope” model in GraphPad Prism]; • 2. Calculation formula: Ratio=(460 nm−blank)/(535 nm−blank) % Effect=(SampleRatio−Ave LCRatio)/(Ave HCRatio−Ave LCRatio)×100%

Series [1] in a line: Pharmacokinetic evaluation in SD rats (iv and oral). Format: in vivo, Sprague Dawley rats. The following applies: male, Sprague-Dawley, rat, plasma, iv 1.0, po 2.0 mg/kg. The protocol:
Assay Example 2: Pharmacokinetic Evaluation of Compounds in Rats
Object of the assay: To evaluate the in vivo pharmacokinetics of the compounds in SD rats
Sprague Dawley rats (male, 200-300 g, 7-9 weeks old, Shanghai SLAC)
The pharmacokinetic characteristics of the compounds in rodents after intravenous injection and oral administration were assayed according to the standard protocol. In the assay, the candidate compounds were formulated into clear solutions and administered to rats by single intravenous injection and oral administration. The vehicle for intravenous injection and oral administration was DMSO and 10% hydroxypropyl β-cyclodextrin in water (DMSO:10% hydroxypropyl β-cyclodextrin in water=5:95). Whole blood samples were collected within 48 hours, and centrifuged at 3000 g for 15 minutes. The supernatant was separated to give plasma samples. 4 times the volume of acetonitrile solution containing internal standard was added to precipitate protein. The resulting mixture was centrifuged and the supernatant was taken out. An equal volume of water was added and the mixture was centrifuged. The supernatant was taken out, and injected as a sample to quantitatively analyze the plasma drug concentration by LC-MS/MS analysis method. The pharmacokinetic parameters, such as peak concentration, time to peak, clearance rate, half-life, area under drug-time curve, bioavailability, etc., were calculated.

Series [2] has as its system ischemia-reperfusion cerebral infarction model. The series is described as follows: Ischemia-reperfusion cerebral infarction (MCAO) model in male SD rats. Format: in vivo. The note with it: 90-min MCAO ischemia-reperfusion, 1 mg/kg tail vein after reperfusion, model group 32.4%, P<0.05 vs. model group. An excerpt: Assay Example 3: Pharmacodynamic Evaluation of the Compound in Ischemia-Reperfusion Cerebral Infarction Model in Male SD Rats Object of the assay: pharmacodynamic assay to explore the improvement of compound 32 on the ischemia-reperfusion cerebral infarction model in rats Materials of the assay: male SD rats (250 g-280 g, SPF grade, Zhejiang Vital River Laboratory Animal Technology Co., Ltd.) • 1) Anesthesia: Respiratory anesthesia with 2.5% isoflurane was used to maintain the depth of anesthesia for animals. • 2) Middle Cerebral Artery Occlusion (MCAO) Model: Animals weighed in the range of 250-280 g at the time of modeling surgery. […] For the administration of the assay sample group, compound 32 was injected through the tail vein of rats after reperfusion with a dose of 1 mg/kg and a volume of 5 mL/kg. • 3) Success criteria for the model: • 1: Within 60 minutes after surgery, the animals were scored according to the Bederson method, and the animals with a score of 2-3 were included in the group. • 2: Within 30-60 minutes of modeling, if the cerebral blood flow on the model side (left side) was reduced by more than 30% compared with that on the right side, the model was considered successful, and the animal was included in the group. […]

T1 sequence (P21453 whole entry): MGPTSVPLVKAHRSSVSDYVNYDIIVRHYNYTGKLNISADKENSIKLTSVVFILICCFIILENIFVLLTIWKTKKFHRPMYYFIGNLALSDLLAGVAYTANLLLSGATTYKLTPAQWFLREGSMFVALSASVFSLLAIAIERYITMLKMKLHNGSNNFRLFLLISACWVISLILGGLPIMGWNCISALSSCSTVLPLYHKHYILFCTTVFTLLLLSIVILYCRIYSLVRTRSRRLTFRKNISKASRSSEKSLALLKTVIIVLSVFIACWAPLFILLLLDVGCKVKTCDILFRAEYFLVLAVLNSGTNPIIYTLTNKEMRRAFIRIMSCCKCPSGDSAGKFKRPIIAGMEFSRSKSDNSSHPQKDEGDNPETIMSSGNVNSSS

One may read the EC50 as the concentration at which the effect is half-maximal. The Emax is the size of the effect at its maximum, as opposed to the concentration needed. What is called bioavailability is dose-corrected exposure relative to a reference, in per cent. In the case of `C/C(=N\OCc1ccc(OC(C)C)c(C(F)(F)F)c1)c1ccc2c(c1)CCC2N1CC(C(=O)O)C1` (stereo not drawn) [Compound 32], on S1P1, the EC50 came out at 2.3 nM. This compound showed a maximum response (Emax) at S1P1 (% Effect) of 98.6%. In addition, in series [1] (intravenous, read-out: Clearance rate CL), the clearance came to 11.3 mL/min/kg. Moreover, the Vd in series [1] (intravenous, read-out: Distribution in tissue Vdss) amounted to 4.35 L/kg. Also, the bioavailability in series [1] (read-out: Bioavailability F) was 92.7%. The Cmax in series [1] (read-out: Peak concentration Cmax) was found to be 556 nM. For the same compound, the AUC(0-t) in series [1] (po, 2 mg/kg, PO, read-out: Area under drug-time curve AUC0-last PO) worked out at 5.47 µM·h. In addition, the half-life in series [1] (po, 2 mg/kg, PO, read-out: Half life T1/2 (PO) (converted)) is 5.44 h. The “Percentage of left cerebral infarct area” value in series [2] is 21.0%.
